Key:
Assay in all cases: relative viability (nuclei count vs DMSO), 5 days (fraction); higher = more cells survive
[1] = compound: C1=CC=C2C(=C1)C=CC(=C2SSC3=C(C=CC4=CC=CC=C43)O)O [IPA-3] + COc1cccc2cc(-c3nc([C@H]4CC[C@H](C(=O)O)CC4)n4ncnc(N)c34)[nH]c12 [OSI-027] (partner 0.5 µM)
Outline: (§1)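 Lung cancer cell lines were pin-tool dosed in 1536-well plates on the day after seeding, with either a lone drug or a fixed anchor-drug dose plus five library-drug doses (not always all listed) in √10 steps. Nuclei were counted on 4× images after 5 days. Relative viability is the ratio of treated-well to vehicle-well nuclei counts, with each value a median of duplicate plates.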

[2] = compound: C1=CC=C2C(=C1)C=CC(=C2SSC3=C(C=CC4=CC=CC=C43)O)O [IPA-3] + O=C(CCCCCCC(=O)Nc1ccccc1)NO [Vorinostat] (partner 1 µM)
Outline: as §1

[3] = compound: C1=CC=C2C(=C1)C=CC(=C2SSC3=C(C=CC4=CC=CC=C43)O)O [IPA-3] + Nc1nc2[nH]cc(CCc3ccc(C(=O)N[C@@H](CCC(=O)O)C(=O)O)cc3)c2c(=O)[nH]1 [Pemetrexed] (partner 0.2 µM)
Outline: as §1

[4] = compound: Cc1ccc(-n2nc(C(C)(C)C)cc2NC(=O)Nc2ccc(OCCN3CCOCC3)c3ccccc23)cc1 [Doramapimod] + CS(=O)(=O)N1CCN(Cc2cc3nc(-c4cccc5[nH]ncc45)nc(N4CCOCC4)c3s2)CC1 [Pictilisib] (partner 1 µM)
Outline: as §1

Cell Line: LOU-NH91
- relative viability ([1]; first compound 0.2 µM): 0.709
- relative viability ([1]; first compound 0.6325 µM): 0.732
- relative viability ([1]; first compound 2 µM): 0.811
- relative viability ([1]; first compound 6.325 µM): 0.73
- relative viability ([1]; first compound 20 µM): 0.776
- relative viability ([2]; first compound 0.2 µM): 0.946
- relative viability ([2]; first compound 0.6325 µM): 0.804
- relative viability ([2]; first compound 2 µM): 0.902
- relative viability ([2]; first compound 6.325 µM): 0.87
- relative viability ([2]; first compound 20 µM): 1.08
- relative viability ([3]; first compound 0.2 µM): 0.382
- relative viability ([3]; first compound 0.6325 µM): 0.377
- relative viability ([3]; first compound 2 µM): 0.465
- relative viability ([3]; first compound 6.325 µM): 0.387
- relative viability ([3]; first compound 20 µM): 0.411
- relative viability ([4]; first compound 0.02 µM): 0.582
- relative viability ([4]; first compound 0.06325 µM): 0.524
- relative viability ([4]; first compound 0.2 µM): 0.493
- relative viability ([4]; first compound 0.6325 µM): 0.524
- relative viability ([4]; first compound 2 µM): 0.406

Cell Line: LU99A
- relative viability ([1]; first compound 0.2 µM): 0.273
- relative viability ([1]; first compound 0.6325 µM): 0.323
- relative viability ([1]; first compound 2 µM): 0.286
- relative viability ([1]; first compound 6.325 µM): 0.323
- relative viability ([1]; first compound 20 µM): 0.315
- relative viability ([2]; first compound 0.2 µM): 0.642
- relative viability ([2]; first compound 0.6325 µM): 0.4
- relative viability ([2]; first compound 2 µM): 0.459
- relative viability ([2]; first compound 6.325 µM): 0.461
- relative viability ([2]; first compound 20 µM): 0.379
- relative viability ([3]; first compound 0.2 µM): 0.188
- relative viability ([3]; first compound 0.6325 µM): 0.189
- relative viability ([3]; first compound 2 µM): 0.143
- relative viability ([3]; first compound 6.325 µM): 0.187
- relative viability ([3]; first compound 20 µM): 0.175
- relative viability ([4]; first compound 0.02 µM): 0.348
- relative viability ([4]; first compound 0.06325 µM): 0.303
- relative viability ([4]; first compound 0.2 µM): 0.311
- relative viability ([4]; first compound 0.6325 µM): 0.307
- relative viability ([4]; first compound 2 µM): 0.263

Cell Line: NCI-H522
- relative viability ([1]; first compound 0.2 µM): 0.719
- relative viability ([1]; first compound 0.6325 µM): 0.619
- relative viability ([1]; first compound 2 µM): 0.751
- relative viability ([1]; first compound 6.325 µM): 0.764
- relative viability ([1]; first compound 20 µM): 0.846
- relative viability ([2]; first compound 0.2 µM): 0.879
- relative viability ([2]; first compound 0.6325 µM): 0.897
- relative viability ([2]; first compound 2 µM): 0.854
- relative viability ([2]; first compound 6.325 µM): 0.894
- relative viability ([2]; first compound 20 µM): 1.06
- relative viability ([3]; first compound 0.2 µM): 1.02
- relative viability ([3]; first compound 0.6325 µM): 0.772
- relative viability ([3]; first compound 2 µM): 0.855
- relative viability ([3]; first compound 6.325 µM): 1.08
- relative viability ([3]; first compound 20 µM): 1.13

Cell Line: NCI-H727
- relative viability ([1]; first compound 0.2 µM): 0.851
- relative viability ([1]; first compound 0.6325 µM): 0.703
- relative viability ([1]; first compound 2 µM): 0.546
- relative viability ([1]; first compound 6.325 µM): 0.613
- relative viability ([1]; first compound 20 µM): 0.634
- relative viability ([2]; first compound 0.2 µM): 1.25
- relative viability ([2]; first compound 0.6325 µM): 1.01
- relative viability ([2]; first compound 2 µM): 1.27
- relative viability ([2]; first compound 6.325 µM): 1.07
- relative viability ([2]; first compound 20 µM): 1.2
- relative viability ([4]; first compound 0.02 µM): 0.213
- relative viability ([4]; first compound 0.06325 µM): 0.5
- relative viability ([4]; first compound 0.2 µM): 0.408
- relative viability ([4]; first compound 0.6325 µM): 0.321
- relative viability ([4]; first compound 2 µM): 0.411

Cell Line: NCI-H1299
- relative viability ([4]; first compound 0.02 µM): 0.769
- relative viability ([4]; first compound 0.06325 µM): 0.444
- relative viability ([4]; first compound 0.2 µM): 0.751
- relative viability ([4]; first compound 0.6325 µM): 0.597
- relative viability ([4]; first compound 2 µM): 0.521

Cell Line: NCI-H1563
- relative viability ([1]; first compound 0.2 µM): 0.841
- relative viability ([1]; first compound 0.6325 µM): 0.794
- relative viability ([1]; first compound 2 µM): 0.74
- relative viability ([1]; first compound 6.325 µM): 0.828
- relative viability ([1]; first compound 20 µM): 0.716
- relative viability ([3]; first compound 0.2 µM): 0.807
- relative viability ([3]; first compound 0.6325 µM): 0.797
- relative viability ([3]; first compound 2 µM): 0.792
- relative viability ([3]; first compound 6.325 µM): 1
- relative viability ([3]; first compound 20 µM): 0.864
- relative viability ([4]; first compound 0.02 µM): 0.677
- relative viability ([4]; first compound 0.06325 µM): 0.633
- relative viability ([4]; first compound 0.2 µM): 0.634
- relative viability ([4]; first compound 0.6325 µM): 0.724
- relative viability ([4]; first compound 2 µM): 0.645

Cell Line: NCI-H1623
- relative viability ([1]; first compound 0.2 µM): 0.466
- relative viability ([1]; first compound 0.6325 µM): 0.436
- relative viability ([1]; first compound 2 µM): 0.431
- relative viability ([1]; first compound 6.325 µM): 0.413
- relative viability ([1]; first compound 20 µM): 0.375

Cell Line: NCI-H1648
- relative viability ([1]; first compound 0.2 µM): 0.258
- relative viability ([1]; first compound 0.6325 µM): 0.276
- relative viability ([1]; first compound 2 µM): 0.281
- relative viability ([1]; first compound 6.325 µM): 0.278
- relative viability ([1]; first compound 20 µM): 0.245
- relative viability ([2]; first compound 0.2 µM): 0.876
- relative viability ([2]; first compound 0.6325 µM): 0.484
- relative viability ([2]; first compound 2 µM): 0.589
- relative viability ([2]; first compound 6.325 µM): 0.34
- relative viability ([2]; first compound 20 µM): 0.399
- relative viability ([3]; first compound 0.2 µM): 0.69
- relative viability ([3]; first compound 0.6325 µM): 0.855
- relative viability ([3]; first compound 2 µM): 0.558
- relative viability ([3]; first compound 6.325 µM): 0.584
- relative viability ([3]; first compound 20 µM): 0.777

Cell Line: NCI-H1703
- relative viability ([4]; first compound 0.02 µM): 0.234
- relative viability ([4]; first compound 0.06325 µM): 0.226
- relative viability ([4]; first compound 0.2 µM): 0.236
- relative viability ([4]; first compound 0.6325 µM): 0.248
- relative viability ([4]; first compound 2 µM): 0.215

Cell Line: NCI-H1792
- relative viability ([1]; first compound 0.2 µM): 0.789
- relative viability ([1]; first compound 0.6325 µM): 0.718
- relative viability ([1]; first compound 2 µM): 0.641
- relative viability ([1]; first compound 6.325 µM): 0.711
- relative viability ([1]; first compound 20 µM): 0.792
- relative viability ([3]; first compound 0.2 µM): 1.33
- relative viability ([3]; first compound 0.6325 µM): 0.486
- relative viability ([3]; first compound 6.325 µM): 0.587
- relative viability ([3]; first compound 20 µM): 0.737
- relative viability ([4]; first compound 0.02 µM): 0.271
- relative viability ([4]; first compound 0.06325 µM): 0.234
- relative viability ([4]; first compound 0.2 µM): 0.222
- relative viability ([4]; first compound 0.6325 µM): 0.254
- relative viability ([4]; first compound 2 µM): 0.211

Cell Line: NCI-H2342
- relative viability ([1]; first compound 0.2 µM): 0.663
- relative viability ([1]; first compound 0.6325 µM): 0.619
- relative viability ([1]; first compound 2 µM): 0.68
- relative viability ([1]; first compound 6.325 µM): 0.757
- relative viability ([1]; first compound 20 µM): 0.743
- relative viability ([2]; first compound 0.2 µM): 0.837
- relative viability ([2]; first compound 0.6325 µM): 1.03
- relative viability ([2]; first compound 2 µM): 0.851
- relative viability ([2]; first compound 6.325 µM): 0.91
- relative viability ([2]; first compound 20 µM): 0.89
- relative viability ([3]; first compound 0.2 µM): 0.868
- relative viability ([3]; first compound 0.6325 µM): 0.761
- relative viability ([3]; first compound 2 µM): 0.841
- relative viability ([3]; first compound 6.325 µM): 0.823
- relative viability ([3]; first compound 20 µM): 0.924

Cell Line: SW 900
- relative viability ([1]; first compound 0.2 µM): 0.759
- relative viability ([1]; first compound 0.6325 µM): 0.611
- relative viability ([1]; first compound 2 µM): 0.6
- relative viability ([1]; first compound 6.325 µM): 0.556
- relative viability ([1]; first compound 20 µM): 0.409
- relative viability ([2]; first compound 0.2 µM): 0.609
- relative viability ([2]; first compound 0.6325 µM): 0.531
- relative viability ([2]; first compound 2 µM): 0.641
- relative viability ([2]; first compound 6.325 µM): 0.654
- relative viability ([2]; first compound 20 µM): 0.481
- relative viability ([3]; first compound 0.2 µM): 0.544
- relative viability ([3]; first compound 0.6325 µM): 0.456
- relative viability ([3]; first compound 2 µM): 0.472
- relative viability ([3]; first compound 6.325 µM): 0.441
- relative viability ([3]; first compound 20 µM): 0.527

Reference: the supplement of paper PMC10307832
